Assay results: patent publication US8765675B2, “Use of calcitonin in osteoarthritis” (Novartis AG, priority 2003, dated 2014)
Where no end group is shown, it is not given here.

Assays:
[1] = Water solubility of delivery agent
[2] = in vivo
cartilage = conditions: cited from earlier work
[3] = system: animal epiphyseal cartilage, rabbit and human cartilage; conditions: in vitro; cited from earlier work
[4] = system: urinary collagen type II degradation products (CTX-II); experiment: 3-month oral sCT treatment, 24 hours urinary CTX-II corrected for creatinine; assay type: in vivo, human
Description: (§1) Women receive treatment with either daily (0.15, 0.4, 1.0, or 2.5 mg) orally dosed sCT (see below for pharmaceutical compositions) combined with eligen technology-based carrier molecule (200 mg), or placebo for 3 months. All participants receive a calcium supplement of 1000 mg plus 400 IU of vitamin D daily throughout the study. Efficacy parameters are 24 hours urinary C-terminal telopeptide of collagen type I (CTX-I) and CTX-II corrected for creatinine excretion assessed at baseline and after 3-month therapy.
(§2) C-telopeptide of type I collagen (CTX I) is considered to be a specific marker sensitive to bone resorption; conversely, type II collagen C-telopeptide (CTX-II) is considered to be a useful cartilage marker.

[5] = system: urinary C-terminal telopeptide of collagen type I (CTX-I); experiment: 3-month oral sCT treatment, 24 hours urinary CTX-I corrected for creatinine; assay type: in vivo, human; conditions: 1.0 mg sCT daily oral, 3-month treatment, compared to placebo group, p<0.001
Description: as §1, §2

Compound: O=C(O)CCCCCCCNC(=O)c1cc(Cl)ccc1O [5 CNAC, N-(5-chlorosalicyloyl)-8-aminocaprylic acid]
- water solubility [1]: very water soluble

Compound: O=C(O)CCCCCCCCCNC(=O)c1ccccc1O [SNAD, N-(10-[2-hydroxybenzoyl]amino)decanoic acid]
- absorbed by the gastro-intestinal tract [2]: more than 90%

Compound: calcitonin (CGNLSTCMLGTYTQDFNKFHTFPQTAIGVGAP; ends and bridges not checked; cysteine pairing not given here; UniProt P01258 85-116, looked up) [origin not specified in cited studies]
- effect on cartilage (cartilage; another menisectomy model (Colombo 1983)): no effect on cartilage
- effect on cartilage destruction (cartilage; rabbits treated with steroids, partial menisectomy or joint immobilization (Badurski 1991)): prevent cartilage destruction
- effect on proteoglycan and collagen synthesis in cartilage [3]: stimulate proteoglycan and collagen synthesis

Compound: salmon calcitonin [sCT]
- decrease in urinary CTX-II after 3-month treatment ([4]; 0.4 mg sCT daily oral, postmenopausal women, compared to placebo, p=0.04): −15.2%
- decrease in urinary CTX-II after 3-month treatment ([4]; 1.0 mg sCT daily oral, postmenopausal women, compared to placebo, p=0.009): −19.7%
- decrease in urinary CTX-II after 3-month treatment ([4]; 1.0 mg sCT, women in the highest tertile of baseline urinary CTX-II): −36.6%
- decrease in urinary CTX-II after 3-month treatment ([4]; 1.0 mg sCT, women in the lowest tertile of baseline urinary CTX-II): −9.9%
- decrease in urinary CTX-II after 3-month treatment ([4]; 2.5 mg sCT daily oral, postmenopausal women, compared to placebo, p=0.02): −17.5%
- 24 hours urinary CTX-II response to oral sCT, dose relationship ([4]; 0.15, 0.4, 1.0, 2.5 mg daily, 3 months, ANOVA=0.012): clear and significant dose dependent relationship
- reduction in 24-hours urinary CTX-I [5]: −41.0%
